Assay results from patent US20040241239A1, “Mixed complexes for masking the taste of bitter active substances” (priority 2001, published 2004).
≈ marks a conversion by molar mass, not a printed value.

Assay: Solubility of HMR 3647
Type: physicochemical
Experimental: HMR 3647 has the chemical formula C43H65N5O10 and has a molecular weight of 812.0 g/mol. […] At acidic pH, the solubility can be increased to 80 mg/ml, since the protonated cation is formed at this pH.

## CC[C@H]1OC(=O)[C@H](C)C(=O)[C@H](C)[C@@H](O[C@@H]2O[C@H](C)C[C@H](N(C)C)[C@H]2O)[C@](C)(OC)C[C@@H](C)C(=O)[C@H](C)[C@H]2N(CCCCn3cnc(-c4cccnc4)c3)C(=O)O[C@]12C [HMR 3647]
Aqueous medium at acidic pH, aqueous buffer, acidic pH, protonated cation
  solubility: 80 mg/mL (≈ 98.5 mM)
water
  water solubility: very poorly water-soluble
